Assay results: patent US20060051354A1, “Chemotherapeutic agents as anti-cancer vaccine adjuvants and therapeutic methods thereof” (priority 2002, published 2006)

Assays:
[1] = i.m., 50 μl, various concentrations, after 7 days
Method: Paclitaxel (PTX) (Bristol-Myers Squibb, Princeton, N.J.), Doxorubicin (DOX) (Gensia, Irvine, Calif.), and Cisplatin (CIS) (Bristol-Myers Squibb) are diluted before injection. Cyclophosphamide (CTX) (Bristol-Myers Squibb) is diluted in sterile water before injection. PTX, CTX, Dox and CIS are injected intramuscularly (i.m.). (50 μl containing various concentrations of chemotherapeutic agents). Muscles are harvested and sectioned to perform histological analysis to assess tissue damage.

[2] = system: melanoma; settings: pretreatment with low dose cyclophosphamide before melanoma vaccine, after 2 months of immunization; cited from earlier work
[3] = system: MCP-1; experiment: Paclitaxel induces MCP-1 in muscle tissue (RT-PCR); type: in vivo, Mice; settings: i.m., muscle harvested 6 hours after injection
Method: Mice are injected intramuscularly (bilaterally) with varying doses of paclitaxel (100 μM to 0.01 μM). Doses of paclitaxel are prepared by 10-fold serial dilutions, in saline, of a 10 mM DMSO stock. The muscles are harvested, on dry ice, 6 hours following injection, and frozen at −80° C. RNA is isolated using TRIZOL reagent (Gibco) as per manufacturers specifications. Ten micrograms of total RNA is reverse transcribed using Superscript RT (Gibco), 500 ng oligodT primers (Gibco), and 250 ng Random Hexamer primers (Gibco) for 20 minutes at room temperature, followed by 2 hours at 42° C.
MCP-1 is amplified from 2 μl of reverse transcription reaction using Titanium PCR kit (Clontech). Amplification primers are as follows:
The PCR reaction is performed for 30 cycles using 100 pmole for each primer, with an annealing temperature of 68 degrees. The PCR products are analyzed on a 1.5% agarose gel, and have an expected size of 397 bps.

[4] = system: B16 cells; experiment: Melanine levels in B16 cells pretreated with paclitaxel; type: cell-based
Method: This unexpected observation lead to the immunological rationale for testing immune-modulating doses of chemotherapy in combination with an antigen. As described in Example II, paclitaxel increased the humoral response against ovalbumin. The testing of paclitaxel as improving a whole-cell vaccine in mice was performed as shown in Examples III and V. This principle is illustrated in FIG. 1. Sterilizing cancer cells with chemotherapeutic agents before immunization of the mice with a composition of cancer cells undergoing apoptosis and/or necrosis and chemotherapeutic agents protected the animals against a lethal tumor challenge. This was unexpected since chemotherapeutic agents are known to be toxic and to trigger systemic immunosuppression. Also, to have in one single composition a chemotherapeutic agent(s) and an antigen administered simultaneously simplifies the use of chemotherapeutic agents as potential vaccine adjuvants. The presence of the chemotherapeutic agent in the anti-cancer vaccine composition also renders moot or diminish the need to proceed to the inactivation by irradiation of the tumoral cells forming the anti-cancer vaccine before reinoculation. The drugs, especially paclitaxel, helps to raise an immune response by inducing a variety of genes known to be antigenic. […]

[5] = system: C2C12 cells; experiment: Paclitaxel toxicity on differentiated C2C12 cells; type: cell-based; settings: various concentrations, even high concentration, non-dividing cells
Method: […] cells were plated in a 12-wells plate at 7×10^4 cells/ml/well in complete DMEM (10 FBS, 1% Strepto-pen, 1% Hepes) and incubated O/N at 37° C. under 5% CO2 atmosphere. Twenty-four hours later, normal DMEM was changed for DMEM containing 2% Horse serum, 1% Strepto-pen and 1% Hepes. The medium was then changed everyday with the complete DMEM 2% Horse serum. For an extra 7 days, complete DMEM 10% Horse serum was added to the cells. After about 1 week, all cells were differentiated and treated with various concentrations of paclitaxel. Even at a high concentration of paclitaxel, differentiated cells now forming elongated muscular fibers, were not affected by any treatment probably due to the non-dividing state of the cells. This observation support the fact that drugs can be injected in the muscle without necessarily causing damages or cell death.

[6] = system: ovalbumin; experiment: Humoral response against ovalbumin (ELISA) after intramuscular immunization; type: in vivo, Mice; settings: 1 μg ovalbumin i.m. without adjuvant, 2 weeks
Method: The animals are injected intramuscularly into tibialis anterior muscles with 50 μl containing either 1 μg of ovalbumin formulated with or without paclitaxel at 10E^−2 molar. Mice are sacrificed at various time points to perform the ELISA (2 weeks post-immunization). Ovalbumin-specific antibody responses are quantified by enzyme-linked immunosorbent assay (ELISA). Microtiter plates are coated overnight with 1 μg per well of ovalbumin. Plates are then washed once with PBS-Tween 0.01% and blocked for 2 hours at 37° C. with PBS+1% BSA. The plates are then incubated with serial dilutions of mouse sera for 1 hour at 37° C. […] The data are expressed as the percentage of responding mice and as the mean titers of responding mice.

Molecule	infiltration of lymphocytes (histology of injected muscle) [1]	tissue damage (histology of injected muscle) [1]	other results
N.N.[Cl][Pt][Cl] [Cisplatin]	mild to moderate	no sign of tissue damage	–
O=P1(N(CCCl)CCCl)NCCCO1 (stereo not drawn) [Cyclophosphamide]	mild to moderate	no sign of tissue damage	patients with augmented antibody and/or cellular immune responses to melanoma [2]: 83%
COc1cccc2c1C(=O)c1c(O)c3c(c(O)c1C2=O)C[C@@](O)(C(=O)CO)C[C@@H]3O[C@H]1C[C@H](N)[C@H](O)[C@H](C)O1 [Doxorubicin]	mild to moderate	no sign of tissue damage	–
CC(=O)O[C@H]1C(=O)[C@@]2(C)[C@H]([C@H](OC(=O)c3ccccc3)[C@]3(O)C[C@H](OC(=O)[C@H](O)[C@@H](NC(=O)c4ccccc4)c4ccccc4)C(C)=C1C3(C)C)[C@]1(OC(C)=O)CO[C@@H]1C[C@@H]2O [Paclitaxel]	mild to moderate	no sign of tissue damage	Fold-induction over GAPDH (MCP-1 RT-PCR) ([3]; 0.01 μM per injection): 2 fold; Fold-induction over GAPDH (MCP-1 RT-PCR) ([3]; 1 μM per injection): 3 fold; Fold-induction over GAPDH (MCP-1 RT-PCR) ([3]; 100 μM per injection): 6 fold; Melanine levels in B16 cells [4]: increases; effect on differentiated C2C12 cells (toxicity) [5]: not affected
Ovalbumin: model protein antigen injected without adjuvant (protein, UniProt P01012 2-386, looked up) Ovalbumin: GSIGAASMEFCFDVFKELKVHHANENIFYCPIAIMSALAMVYLGAKDSTRTQINKVVRFDKLPGFGDSIEAQCGTSVNVHSSLRDILNQITKPNDVYSFSLASRLYAEERYPILPEYLQCVKELYRGGLEPINFQTAADQARELINSWVESQTNGIIRNVLQPSSVDSQTAMVLVNAIVFKGLWEKAFKDEDTQAMPFRVTEQESKPVQMMYQIGLFRVASMASEKMKILELPFASGTMSMLVLLPDEVSGLEQLESIINFEKLTEWTSSNVMEERKIKVYLPRMKMEEKYNLTSVLMAMGITDVFSSSANLSGISSAESLKISQAVHAAHAEINEAGREVVGSAEAGVDAASVSEEFRADHPFLFCIKHIATNAVLFFGRCVSP	–	–	% seroconversion [6]: 20%
